Data published in patent US20110002989A1, “METHODS, DOSAGE FORMS AND KITS FOR ADMINISTERING ZIPRASIDONE WITHOUT FOOD” (Pfizer Inc., priority 2008, published 2011).
Structures can show the parent of a compound that is named as a salt.

Legend:
[1] = In vitro dissolution test in 0.01 N HCl simulated gastric buffer pH 2.0 (MDC and AUC90); type: physicochemical; conditions: for AUC90 / MDC: 200 μgA/mL if all dissolved, pH 2.0, 37° C., 100 rpm; for AUC Enhancement Relative to Control 1: AUC90, pH 2.0 simulated gastric buffer; for AUC Enhancement Relative to Control 1 / MDC Enhancement Relative to Control 1: 37° C.; for MDC Enhancement Relative to Control 1: pH 2.0 simulated gastric buffer
Procedure: An in vitro dissolution test may be performed by adding the test form of ziprasidone to a dissolution test media consisting of a simulated gastric buffer (GB) solution of 0.01 N HCl at pH 2.0.
In such a test, two end-points are assessed: 1) the maximum dissolved drug concentration (MDC) of ziprasidone in the test media, and 2) the area under the concentration versus time curve of dissolved ziprasidone in the in vitro dissolution test. More specifically, in the in vitro use environment, the concentration of dissolved ziprasidone over any 90-minute period from about 0 to about 270 minutes following introduction to the use environment is measured.
An in vitro test to evaluate enhanced ziprasidone dissolution rate in aqueous solution can be conducted by adding with agitation a sufficient quantity of test ziprasidone form to the test medium, such that if all the ziprasidone dissolved, the theoretical concentration of ziprasidone would exceed the equilibrium concentration provided by the control ziprasidone form by a factor of at least 2, and preferably by a factor of at least 10. Performing the test at this concentration will ensure that the MDC of ziprasidone can be determined.
Then, the concentration of dissolved ziprasidone is measured as a function of time by sampling the test medium and plotting ziprasidone concentration in the test medium versus time so that the dissolution rate can be ascertained. The MDC is taken to be the maximum value of dissolved ziprasidone measured over the duration of the test.
During such a test, the concentration of “dissolved drug” should be measured using standard analytical techniques, including high-performance liquid chromatography (HPLC), ultraviolet (UV) absorption, or other standard methods known in the art. When using solution techniques, such as HPLC, the test solution should be either filtered or centrifuged, to avoid large drug particulates that would give an erroneous determination.
“Dissolved drug” is typically taken as that material that either passes a 0.45 μm syringe filter or, alternatively, the material that remains in the supernatant following centrifugation. Filtration can be conducted using a 13 mm, 0.45 μm polyvinylidine difluoride syringe filter sold by Scientific Resources under the trademark TITAN®. Centrifugation is typically carried out in a polypropylene microcentrifuge tube by centrifuging at 13,000 G for 60 seconds. Other similar filtration or centrifugation methods can be employed and useful results obtained. For example, using other types of microfilters may yield values somewhat higher or lower (±10-40%) than that obtained with the filter specified above but will still allow identification of preferred dissolution rate-improved forms.
A specific example of a dissolution test for ascertaining solubility and dissolution rate of a test ziprasidone form is as follows: First, a sufficient amount of the test form is placed into a dissolution flask such that the concentration of ziprasidone would have been 200 μgA/mL if all the ziprasidone dissolved. A simulated GB solution at pH 2.0 is then added and the mixture stirred at a stirred speed of 100 rpm. The test is performed at 37° C. Using UV probes, the concentration of dissolved ziprasidone is then measured over time for at least 90 minutes. The formulation is considered to be a solubility-improved form or dissolution rate-improved form of ziprasidone if it provides at least one of (1) a MDC that is greater than that of the control, (2) an AUC90 that is greater than that of the control, or (3) both (1) and (2). The control formulation, as discussed above, is crystalline ziprasidone HCl monohydrate as is used in the GEODON/ZELDOX™ commercial capsules.
The following test was used to evaluate various ziprasidone formulations. […]

[2] = depending on the dose, healthy volunteers; cited from earlier work

Compound | AUC90 [1] [mg·min/mL] | MDC [1] [μgA/mL] | AUC Enhancement Relative to Control 1 [1] [fold] | MDC Enhancement Relative to Control 1 [1] [fold] | enhanced absorption when given with food [2] | AUC90 ([1]; hydrochloride monohydrate) [mg·min/mL] | MDC ([1]; hydrochloride monohydrate) [μgA/mL]
ziprasidone succinate [Example 12] | 4.9 | 59 | 3.0 | 2.3 |  |  | 
ziprasidone tosylate [Example 8] | 3.8 | 54 | 2.3 | 2.1 |  |  | 
NC(CC(=O)O)C(=O)O.O=C1Cc2cc(CCN3CCN(c4nsc5ccccc45)CC3)c(Cl)cc2N1 [Example 10, ziprasidone aspartate] | 6.1 | 76 | 3.7 | 3.0 |  |  | 
O=C1Cc2cc(CCN3CCN(c4nsc5ccccc45)CC3)c(Cl)cc2N1 [Ziprasidone, 5-[2-[4-(1,2-benzisothiazol-3-yl)-1-piperazinyl]ethyl]-6-chloro-1,3-dihydro-2H-indol-2-one] |  |  |  |  | approximately 100% |  | 
ziprasidone tartrate [Example 9] | 6.1 | 91 | 3.7 | 3.6 |  |  | 
ziprasidone citrate [Example 11] | 2.4 | 33 | 1.5 | 1.3 |  |  | 
O=C1Cc2cc(CCN3CCN(c4nsc5ccccc45)CC3)c(Cl)cc2N1 [Control 1, ziprasidone hydrochloride monohydrate, reference compound] |  |  |  |  |  | 1.6 | 25
O=C1Cc2cc(CCN3CCN(c4nsc5ccccc45)CC3)c(Cl)cc2N1 [Example 7, ziprasidone free base] | 7.0 | 85 | 4.3 | 3.3 |  |  | 
O=C1Cc2cc(CCN3CCN(c4nsc5ccccc45)CC3)c(Cl)cc2N1 [Example 6, ziprasidone mesylate] | 9.0 | 140 | 5.5 | 5.5 |  |  | 
